Data on one compound can be found in US11078189B2, “Pharmaceutical compounds” (REVIRAL LIMITED, priority 2017, dated 2021).

Each structure is given as a SMILES string. Read-outs that look alike come from different tables or passages of the source. A value given as a limit tells only on which side of the number the result lay.

One data set deals with T1, CYP2D6 (Homo sapiens, UniProt P10635).
T1 construct: from tissue; host or cells: human liver microsomes
Description: Cytochrome P450 inhibition CYP2D6. The class given is in vitro ADME. The following applies: human liver microsomes. How it is done: (§1) Test compound (0.1, 0.25, 1, 2.5, 10, 25 μM in DMSO; final DMSO concentration 0.3%) was incubated with human liver microsomes (0.25 mg/mL) and NADPH (1 mM) in the presence of a cytochrome P450 isoform-specific probe substrate. The metabolites were monitored by LC-MS/MS and a decrease in the formation of the metabolite compared to the vehicle control used to calculate an IC50 value (test compound concentration which produces 50% inhibition). A cytochrome P450 isoform-specific selective inhibitor was screened alongside the test compounds as a positive control.
In general terms: Liver microsomes are vesicles of endoplasmic reticulum, rich in cytochrome P450 enzymes.

In a further data set the target is T2, CYP2C19 (Homo sapiens, UniProt P33261).
T2 construct: from tissue; host or cells: human liver microsomes
In words: Cytochrome P450 inhibition CYP2C19. The class given is in vitro ADME. Particulars: human liver microsomes. How it is done: as §1

The target in a further data set is T3, CYP2B6 (Homo sapiens, UniProt P20813).
T3 construct: from tissue; host or cells: human liver microsomes
T3 sequence (P20813 1-491): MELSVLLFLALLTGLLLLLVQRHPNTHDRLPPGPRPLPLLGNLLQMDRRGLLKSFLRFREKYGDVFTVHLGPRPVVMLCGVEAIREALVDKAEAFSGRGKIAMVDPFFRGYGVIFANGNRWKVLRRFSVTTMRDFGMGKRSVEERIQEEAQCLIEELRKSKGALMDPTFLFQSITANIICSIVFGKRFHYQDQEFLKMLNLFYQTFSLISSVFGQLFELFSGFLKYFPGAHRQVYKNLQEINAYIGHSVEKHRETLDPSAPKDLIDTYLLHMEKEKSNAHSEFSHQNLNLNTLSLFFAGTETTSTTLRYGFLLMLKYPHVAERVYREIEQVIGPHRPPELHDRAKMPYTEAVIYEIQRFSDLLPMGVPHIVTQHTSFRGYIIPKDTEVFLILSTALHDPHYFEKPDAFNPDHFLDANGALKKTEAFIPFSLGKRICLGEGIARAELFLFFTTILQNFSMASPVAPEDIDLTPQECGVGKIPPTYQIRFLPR
In words: Cytochrome P450 inhibition CYP2B6. The format is in vitro ADME. The following applies: human liver microsomes. How it is done:
as §1

In the next data set the target is T4, CYP3A4 (Homo sapiens, UniProt P08684).
T4 construct: from tissue; host or cells: human liver microsomes
Description: Cytochrome P450 inhibition CYP3A4. The class given is in vitro ADME. The following applies: human liver microsomes. As to the method: as §1

The next data set concerns the target T5, CYP2C8 (Homo sapiens, UniProt P10632).
T5 construct: from tissue; host or cells: human liver microsomes
T5 sequence (P10632 1-490): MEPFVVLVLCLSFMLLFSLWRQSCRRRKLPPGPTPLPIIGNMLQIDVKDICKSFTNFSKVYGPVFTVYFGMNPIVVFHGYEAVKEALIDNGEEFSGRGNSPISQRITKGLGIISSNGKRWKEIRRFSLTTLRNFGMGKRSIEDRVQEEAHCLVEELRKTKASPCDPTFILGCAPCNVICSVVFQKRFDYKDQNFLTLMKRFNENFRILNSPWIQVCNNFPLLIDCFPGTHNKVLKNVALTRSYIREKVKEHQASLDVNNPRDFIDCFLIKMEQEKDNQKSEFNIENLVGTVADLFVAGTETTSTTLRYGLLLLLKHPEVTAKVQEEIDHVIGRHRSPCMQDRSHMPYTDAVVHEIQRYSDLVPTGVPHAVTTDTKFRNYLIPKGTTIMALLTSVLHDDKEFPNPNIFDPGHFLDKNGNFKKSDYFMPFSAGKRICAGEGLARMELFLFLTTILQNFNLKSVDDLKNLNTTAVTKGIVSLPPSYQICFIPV
In words: Cytochrome P450 inhibition CYP2C8. The class given is in vitro ADME. The following applies: human liver microsomes. As to the method: as §1

The nature of data set [1]: In vivo pharmacokinetics in the dog. Also on record: species or system Beagle dogs. The following applies: Beagle, plasma, 3 mg/kg PO. As to the method: The pharmacokinetics of compounds of the invention were studied in vivo in the dog at doses of 3 mg/kg (PO).
Beagle dogs (n=3) were treated with experimental compounds via oral administration (3 mg/kg). Oral administration was performed by gavage at a dose of 3 mg/kg at a concentration of 0.6 mg/mL in […], 30% PEG 400 & 65% (2-hydroxypropyl)-β-cyclodextrin solution (20% w/v aq.). Serial blood samples were collected at 0.08, 0.25, 0.5, 1, 2, 4, 6, 8, 12 and 24 hours post dosing of compound. […] Serial plasma samples were taken at the defined time points and stored immediately at −80° C.
Following protein precipitation with acetonitrile, samples were analysed with tandem. liquid chromatography/mass spectrometry using electrospray ionisation. A full matrix curve with internal standards was employed and PK parameters were calculated.

T4 sequence (P08684 whole entry): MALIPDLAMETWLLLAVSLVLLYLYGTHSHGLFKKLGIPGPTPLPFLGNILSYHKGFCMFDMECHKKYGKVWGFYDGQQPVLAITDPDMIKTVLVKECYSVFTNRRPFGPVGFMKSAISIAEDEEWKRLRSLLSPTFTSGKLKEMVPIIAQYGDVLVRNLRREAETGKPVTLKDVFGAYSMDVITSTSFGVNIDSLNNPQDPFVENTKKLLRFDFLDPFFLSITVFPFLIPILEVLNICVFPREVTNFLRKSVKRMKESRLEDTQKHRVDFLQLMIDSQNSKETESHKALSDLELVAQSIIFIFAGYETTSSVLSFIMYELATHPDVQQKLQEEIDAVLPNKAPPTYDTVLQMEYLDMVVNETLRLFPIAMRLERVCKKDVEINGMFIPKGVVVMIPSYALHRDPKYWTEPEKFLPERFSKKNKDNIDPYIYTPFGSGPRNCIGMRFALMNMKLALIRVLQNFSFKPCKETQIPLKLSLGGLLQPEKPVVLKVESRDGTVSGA
T2 sequence (P33261 whole entry): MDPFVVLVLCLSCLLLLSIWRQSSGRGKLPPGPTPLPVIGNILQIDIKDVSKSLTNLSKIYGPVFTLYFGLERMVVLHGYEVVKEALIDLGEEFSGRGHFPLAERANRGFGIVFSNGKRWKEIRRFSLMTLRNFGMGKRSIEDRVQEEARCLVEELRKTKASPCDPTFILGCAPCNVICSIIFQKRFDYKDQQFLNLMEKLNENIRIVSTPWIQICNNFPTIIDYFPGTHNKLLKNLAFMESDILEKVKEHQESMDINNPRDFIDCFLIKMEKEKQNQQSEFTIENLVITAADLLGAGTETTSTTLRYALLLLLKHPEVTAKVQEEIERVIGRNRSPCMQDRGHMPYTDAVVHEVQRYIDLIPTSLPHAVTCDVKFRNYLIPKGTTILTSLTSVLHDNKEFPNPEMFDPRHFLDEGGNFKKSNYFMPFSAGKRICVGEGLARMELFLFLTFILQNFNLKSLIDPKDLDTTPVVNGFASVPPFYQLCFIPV
T1 sequence (P10635 whole entry): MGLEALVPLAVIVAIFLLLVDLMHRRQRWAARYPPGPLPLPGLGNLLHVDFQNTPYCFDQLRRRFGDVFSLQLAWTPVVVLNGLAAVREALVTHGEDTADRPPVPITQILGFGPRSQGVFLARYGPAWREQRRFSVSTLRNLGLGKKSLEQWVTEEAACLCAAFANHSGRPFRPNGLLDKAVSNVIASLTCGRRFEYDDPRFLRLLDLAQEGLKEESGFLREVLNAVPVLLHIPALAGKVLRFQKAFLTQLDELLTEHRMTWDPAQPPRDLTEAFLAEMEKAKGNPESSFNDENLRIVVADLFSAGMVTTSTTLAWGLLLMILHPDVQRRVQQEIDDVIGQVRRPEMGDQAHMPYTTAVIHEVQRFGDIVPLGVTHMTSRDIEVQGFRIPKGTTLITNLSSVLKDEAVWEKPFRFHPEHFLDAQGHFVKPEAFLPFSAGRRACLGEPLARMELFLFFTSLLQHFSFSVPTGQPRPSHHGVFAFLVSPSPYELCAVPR

One may read the IC50 as the midpoint of a concentration-inhibition curve. For orientation: AUC means the area under the concentration-time curve, a measure of exposure. Lower therefore signals less exposure. As usually defined, the AUC(0-inf) is the area under the concentration-time curve extrapolated to infinity. Read a low AUC(0-inf) as less exposure. Usually AUC(0-t) stands for exposure summed from dosing to a finite time, without extrapolation to infinity. A word on the Cmax: it is the highest concentration seen after dosing. A word on the Tmax: it is the time at which the peak concentration occurs. Broadly, the half-life is the time in which the quantity being followed falls by half. High values mean slow loss, low ones fast loss. On to `CS(=O)(=O)N1CCC(n2c(CN3C(=O)C4(CC4)c4ccc(F)cc43)nc3cc(Cl)ccc32)CC1` [Compound 33, 1′-{[5-Chloro-1-(1-methanesulfonylpiperidin-4-yl)-1H-1,3-benzodiazol-2-yl]methyl}-6′-fluoro-1′,2′-dihydrospiro[cyclopropane-1,3′-indole]-2′-one], for which, on CYP2D6, the IC50 is above 25 µM. The IC50 on CYP2C19 is above 25 µM. The same compound displayed an IC50 against CYP2B6 above 25 µM. In addition, at CYP3A4 (substrate = midazolam, read-out: Cytochrome P450 inhibition IC50 CYP3A4 (midazolam)), the concentration for half-maximal inhibition (IC50) was 0.674 µM. Further, on CYP3A4 (substrate = testosterone, read-out: Cytochrome P450 inhibition IC50 CYP3A4 (testosterone)), the IC50 came to 3.94 µM. Moreover, on CYP2C8, the IC50 was above 25 µM. In data set [1], this compound came in with an AUC of 3870 ng·h/mL, an AUC(0-inf) of 4280 ng·h/mL, an AUC(0-t) of 3870 ng·h/mL and a Cmax of 535 ng/mL. In data set [1], the Tmax was 0.67 h and the half-life is 7.24 h.
